Read-outs that look alike come from different tables or passages of the source.
Columns and labels:
[1] = biological target: ErbB2 insYVMA (HER2-YVMA, SEQ ID NO: 2) (Homo sapiens, UniProt P04626, INS775YVMA/P1170A); test: biochemical; conditions: ErbB2 insYVMA enzyme assay
ErbB2 WT = ErbB2 WT (Homo sapiens (Human), UniProt P04626); test: ErbB enzyme assay (CisBio HTRF KinEASE-TK), Assay 2; assay type: biochemical
Outline: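 ErbB2 phosphorylates 250 nM biotin-TK substrate at 1 mM ATP in 25 mM HEPES pH 7.4, 10 mM MgCl2, 0.01% Triton X-100 and 2% DMSO, for 30 min at 22 °C. Product is detected by HTRF with Sa-XL665 and TK-Ab-Cryptate. Percent of control is set by DMSO-only wells and pre-quenched wells.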

EGFR = EGFR (Homo sapiens (Human), UniProt P00533); test: ErbB enzyme assay (CisBio HTRF KinEASE-TK), Assay 3; assay type: biochemical
Chain of EGFR (P00533 25-1210): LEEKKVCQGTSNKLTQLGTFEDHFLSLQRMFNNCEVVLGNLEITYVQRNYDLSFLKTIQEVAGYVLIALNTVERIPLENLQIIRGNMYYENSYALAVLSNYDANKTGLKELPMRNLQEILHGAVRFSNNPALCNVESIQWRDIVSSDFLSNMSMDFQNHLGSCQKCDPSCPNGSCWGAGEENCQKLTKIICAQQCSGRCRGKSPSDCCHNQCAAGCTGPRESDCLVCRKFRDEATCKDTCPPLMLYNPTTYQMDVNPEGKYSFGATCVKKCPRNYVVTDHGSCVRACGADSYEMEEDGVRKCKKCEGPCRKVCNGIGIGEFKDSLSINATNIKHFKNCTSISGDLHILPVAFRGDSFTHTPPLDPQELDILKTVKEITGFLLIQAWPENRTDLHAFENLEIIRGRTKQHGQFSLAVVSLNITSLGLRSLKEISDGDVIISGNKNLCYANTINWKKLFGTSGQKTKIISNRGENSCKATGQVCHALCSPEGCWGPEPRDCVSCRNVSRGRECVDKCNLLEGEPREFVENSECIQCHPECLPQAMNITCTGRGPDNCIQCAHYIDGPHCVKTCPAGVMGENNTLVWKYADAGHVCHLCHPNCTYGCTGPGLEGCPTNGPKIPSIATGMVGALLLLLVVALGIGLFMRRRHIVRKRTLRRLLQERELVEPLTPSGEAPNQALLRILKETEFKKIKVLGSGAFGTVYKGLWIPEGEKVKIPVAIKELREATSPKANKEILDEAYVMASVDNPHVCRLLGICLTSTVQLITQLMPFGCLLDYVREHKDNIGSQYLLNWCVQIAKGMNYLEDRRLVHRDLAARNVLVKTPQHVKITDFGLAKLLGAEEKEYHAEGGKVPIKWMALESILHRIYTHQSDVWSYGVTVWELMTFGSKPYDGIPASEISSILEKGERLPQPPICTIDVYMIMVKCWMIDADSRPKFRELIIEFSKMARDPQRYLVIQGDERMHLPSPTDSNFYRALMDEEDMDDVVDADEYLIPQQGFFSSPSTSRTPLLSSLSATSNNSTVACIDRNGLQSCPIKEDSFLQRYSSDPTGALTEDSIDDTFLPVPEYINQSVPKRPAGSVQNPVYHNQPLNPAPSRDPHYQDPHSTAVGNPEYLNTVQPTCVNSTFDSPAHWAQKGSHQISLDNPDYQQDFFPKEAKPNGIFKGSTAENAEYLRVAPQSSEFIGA
Outline: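 Kinase incubated 30 min at 22 °C with 250 nM biotinylated TK substrate, 1 mM ATP and serially diluted compound in 25 mM HEPES pH 7.4, 10 mM MgCl2, 0.01% Triton X-100, 2% DMSO. Phosphorylation read by HTRF (Sa-XL665/TK-Ab-Cryptate); IC50 from 4-parameter fit of percent of control.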

[2] = biological target: ErbB2 with Exon 20 YVMA insertion (HER2-YVMA) (Homo sapiens (Human), UniProt P04626, INS775YVMA); test: Cellular phosphorylation assay, constitutive ErbB2 phosphorylation (Y1196) in engineered NIH 3T3 cells, Assay 4; assay type: cell-based
Outline: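 Engineered NIH 3T3 cells expressing HER2-YVMA treated with compounds 1 h at 37 °C, then formaldehyde-fixed and methanol-permeabilized. pErbB2 Y1196 detected by in-cell infrared immunofluorescence, normalized to GAPDH. IC50 from the normalized curves.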

EGFR wild type (EGFR WT) = EGFR wild type (EGFR WT) (Homo sapiens (Human), UniProt P00533); test: Cellular phosphorylation assay, EGF-stimulated EGFR phosphorylation in engineered NIH 3T3 cells, Phospho-EGFR DuoSet IC ELISA, Assay 5; assay type: cell-based
Chain of EGFR wild type (EGFR WT) (P00533 25-1210): as above
Outline: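 NIH 3T3 cells expressing EGFR WT (20,000/well, attached overnight) were exposed to serially diluted compound for 1 h at 37 °C, then stimulated with 100 ng/ml rEGF for 10 min. Phospho-EGFR in lysates measured by sandwich ELISA optical density; IC50 from curves.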

Chain of ErbB2 insYVMA (HER2-YVMA, SEQ ID NO: 2) (P04626 with tags, fused parts or gaps INS775YVMA/P1170A limits assumed): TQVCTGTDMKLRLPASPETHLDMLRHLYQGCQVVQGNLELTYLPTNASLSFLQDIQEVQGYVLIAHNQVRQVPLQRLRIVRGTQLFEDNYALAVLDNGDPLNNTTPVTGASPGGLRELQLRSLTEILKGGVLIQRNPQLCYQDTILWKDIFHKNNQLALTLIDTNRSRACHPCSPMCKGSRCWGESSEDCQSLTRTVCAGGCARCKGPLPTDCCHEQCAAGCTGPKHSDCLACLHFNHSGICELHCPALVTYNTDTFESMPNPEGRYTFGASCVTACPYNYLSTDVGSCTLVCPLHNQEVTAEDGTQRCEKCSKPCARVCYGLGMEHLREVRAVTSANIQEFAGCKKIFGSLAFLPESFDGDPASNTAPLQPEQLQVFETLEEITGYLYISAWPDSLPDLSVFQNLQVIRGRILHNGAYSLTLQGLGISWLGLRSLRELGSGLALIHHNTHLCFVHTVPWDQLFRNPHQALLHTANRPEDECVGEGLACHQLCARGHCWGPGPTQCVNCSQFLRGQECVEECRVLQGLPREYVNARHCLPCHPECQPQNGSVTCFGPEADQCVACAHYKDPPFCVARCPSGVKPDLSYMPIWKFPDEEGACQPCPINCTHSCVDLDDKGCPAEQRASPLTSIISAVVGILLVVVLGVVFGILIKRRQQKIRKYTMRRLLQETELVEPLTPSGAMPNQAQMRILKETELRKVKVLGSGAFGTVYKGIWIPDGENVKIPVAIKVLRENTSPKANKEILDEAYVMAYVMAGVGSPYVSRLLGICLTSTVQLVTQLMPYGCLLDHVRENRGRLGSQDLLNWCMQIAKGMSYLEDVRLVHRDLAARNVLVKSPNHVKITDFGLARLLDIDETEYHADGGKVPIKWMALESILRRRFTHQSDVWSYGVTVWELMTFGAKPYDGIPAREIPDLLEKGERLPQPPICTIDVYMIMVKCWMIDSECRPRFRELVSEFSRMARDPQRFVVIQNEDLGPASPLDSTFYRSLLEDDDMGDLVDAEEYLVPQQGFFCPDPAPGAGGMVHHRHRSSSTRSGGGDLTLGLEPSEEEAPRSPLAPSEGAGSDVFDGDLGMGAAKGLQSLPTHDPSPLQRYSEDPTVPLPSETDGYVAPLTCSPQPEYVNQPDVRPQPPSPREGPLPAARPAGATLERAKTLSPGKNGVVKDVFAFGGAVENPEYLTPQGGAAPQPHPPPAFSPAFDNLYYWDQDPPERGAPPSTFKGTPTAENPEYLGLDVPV
Chain of ErbB2 WT (P04626 23-1255): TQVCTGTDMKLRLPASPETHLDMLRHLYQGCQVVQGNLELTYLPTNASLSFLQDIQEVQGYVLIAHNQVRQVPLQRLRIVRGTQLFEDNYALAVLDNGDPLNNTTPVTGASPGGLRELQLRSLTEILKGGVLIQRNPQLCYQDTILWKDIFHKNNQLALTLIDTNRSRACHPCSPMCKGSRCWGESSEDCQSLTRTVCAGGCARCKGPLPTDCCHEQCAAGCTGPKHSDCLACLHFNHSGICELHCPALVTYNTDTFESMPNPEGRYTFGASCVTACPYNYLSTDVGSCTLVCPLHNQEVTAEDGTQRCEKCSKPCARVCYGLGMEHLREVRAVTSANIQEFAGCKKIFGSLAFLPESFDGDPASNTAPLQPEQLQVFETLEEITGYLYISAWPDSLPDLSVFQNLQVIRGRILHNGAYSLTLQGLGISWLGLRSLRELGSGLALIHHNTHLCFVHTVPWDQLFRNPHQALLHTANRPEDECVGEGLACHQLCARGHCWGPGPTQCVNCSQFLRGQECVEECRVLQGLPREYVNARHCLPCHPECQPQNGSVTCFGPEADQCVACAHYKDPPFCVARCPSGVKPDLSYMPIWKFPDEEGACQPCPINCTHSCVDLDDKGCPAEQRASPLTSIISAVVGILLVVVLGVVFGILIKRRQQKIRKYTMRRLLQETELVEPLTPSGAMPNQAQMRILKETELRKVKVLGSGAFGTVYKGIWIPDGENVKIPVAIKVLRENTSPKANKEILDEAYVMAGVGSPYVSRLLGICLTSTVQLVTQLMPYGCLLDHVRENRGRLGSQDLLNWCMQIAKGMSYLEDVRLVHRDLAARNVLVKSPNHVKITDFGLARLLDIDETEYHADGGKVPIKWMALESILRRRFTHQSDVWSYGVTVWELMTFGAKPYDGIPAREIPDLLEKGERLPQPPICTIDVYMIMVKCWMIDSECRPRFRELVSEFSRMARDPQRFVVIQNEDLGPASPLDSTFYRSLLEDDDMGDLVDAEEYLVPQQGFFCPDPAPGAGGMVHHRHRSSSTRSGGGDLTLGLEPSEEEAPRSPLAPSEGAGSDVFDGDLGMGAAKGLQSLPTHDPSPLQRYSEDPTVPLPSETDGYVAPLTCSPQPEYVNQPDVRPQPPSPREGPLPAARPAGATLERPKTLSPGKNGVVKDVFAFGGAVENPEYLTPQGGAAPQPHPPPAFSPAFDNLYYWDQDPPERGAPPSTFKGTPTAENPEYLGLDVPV

| Compound | IC50 ([1]; read-out: Assay 1 IC50) [nM] | IC50 (ErbB2 WT) [nM] | IC50 (EGFR) [nM] | IC50 [2] [nM] | IC50 (EGFR wild type (EGFR WT)) [nM] | IC50 ([1]; Assay 1 IC50 (nM)) [nM] |
| --- | --- | --- | --- | --- | --- | --- |
| Cc1cc(Nc2ncnc3cnc(N4CCN(C)S4(=O)=O)nc23)ccc1Oc1ccc2c(c1)ncn2C [Example 29, 2-methyl-5-(8-((3-methyl-4-((1-methyl-1H-benzo[d]imidazol-5-yl)oxy)phenyl)amino)pyrimido[5,4-d]pyrimidin-2-yl)-1,2,5-thiadiazolidine 1,1-dioxide] | 37.8 | 65.9 | ≥ 10000 | 20.6 | ≥ 5000 |  |
| CON(C)c1ncc2ncnc(Nc3ccc(Oc4ccc5c(c4)ncn5C)c(C)c3)c2n1 [Example 22, 6-(methoxy(methyl)amino)-N-(3-methyl-4-((1-methyl-1H-benzo[d]imidazol-5-yl)oxy)phenyl)pyrimido[5,4-d]pyrimidin-4-amine] | 25.5 | 52.4 | 8700 | 13 | ≥ 5000 |  |
| CON1CCN(c2ncc3ncnc(Nc4ccc(Oc5ccc6c(c5)ncn6C)c(C)c4Cl)c3n2)CC1 [Example 98, N-(2-chloro-3-methyl-4-((1-methyl-1H-benzo[d]imidazol-5-yl)oxy)phenyl)-6-(4-methoxypiperazin-1-yl)pyrimido[5,4-d]pyrimidin-4-amine] | 232 | 1950 | ≥ 10000 | 266 | ≥ 5000 |  |
| Cc1c(Oc2ccn3ncnc3c2)ccc(Nc2ncnc3cnc(N4CC[C@H]4C(C)(C)O)nc23)c1F [Example 309] | 184 | 223 | ≥ 10000 | 5000 | ≥ 5000 |  |
| Cc1cc(Nc2ncnc3cnc(N4CC(C)CS4(=O)=O)nc23)ccc1Oc1ccc2c(c1)ncn2C (centres unmarked) [Example 140, 4-methyl-2-(8-((3-methyl-4-((1-methyl-1H-benzo[d]imidazol-5-yl)oxy)phenyl)amino)pyrimido[5,4-d]pyrimidin-2-yl)isothiazolidine 1,1-dioxide] | 21.3 | 20.3 | 6360 | 8.1 | ≥ 5000 |  |
| Cn1cnc2cc(Oc3ccc(Nc4ncnc5cnc(N6C[C@@H]7C[C@H]6C[C@H]7O)nc45)cc3Cl)ccc21 [Example 492] | 24.7 | 37.8 | 4730 | 37.2 | ≥ 5000 |  |
| Cc1cc(Nc2ncnc3cnc(N(C)[C@@H]4CCCOC4)nc23)ccc1Oc1ccn2ncnc2c1 [Example 415] | 16.9 | 16.8 | 970 | 94.6 | ≥ 5000 |  |
| Clc1cc(Nc2ncnc3cnc(N4CC5CCC(C4)O5)nc23)ccc1Oc1ccn2ncnc2c1 [Example 383] | 56.3 | 75.3 | ≥ 10000 | 4140 | ≥ 5000 |  |
| Clc1cc(Nc2ncnc3cnc(N4C[C@H]5CC[C@@H]4CO5)nc23)ccc1Oc1ccn2ncnc2c1 [Example 389] | 16.7 | 12.2 | ≥ 10000 | 127 | ≥ 5000 |  |
| FC(F)[C@H]1CCN1c1ncc2ncnc(Nc3ccc(Oc4ccn5ncnc5c4)c(Cl)c3)c2n1 [Example 410] | 14.7 | 42.3 | 6300 | 208 | ≥ 5000 |  |
| Cc1c(Oc2ccn3ncnc3c2)ccc(Nc2ncnc3cnc(N(C)[C@H]4CN(C)C[C@H]4F)nc23)c1F [Example 320] | 12.7 | 36 | 2340 | 271 | ≥ 5000 |  |
| Cc1cc(Nc2ncnc3cnc(N4CC[C@H]4C(F)F)nc23)ccc1Oc1ccn2ncnc2c1 [Example 390] | 24.8 | 44.6 | 3980 | 108 | ≥ 5000 |  |
| Cc1cc(Nc2ncnc3cnc(N4CC5CCOC5C4)nc23)ccc1Oc1ccc2c(c1)ncn2C (centres unmarked) [Example 462] | 20.3 | 41.5 | ≥ 10000 | 18.6 | ≥ 5000 |  |
| Cc1cc(Nc2ncnc3cnc(N4CCC[C@@H]5COC[C@@H]54)nc23)ccc1Oc1ccc2c(c1)ncn2C [Example 432] | 28.8 | 71.1 | ≥ 10000 | 80.2 | ≥ 5000 |  |
| Cc1cc(Nc2ncnc3cnc(N(C)CCC(C)(C)O)nc23)ccc1Oc1ccc2c(c1)ncn2C [Example 102, 2-methyl-4-(methyl(8-((3-methyl-4-((1-methyl-1H-benzo[d]imidazol-5-yl)oxy)phenyl)amino)pyrimido[5,4-d]pyrimidin-2-yl)amino)butan-2-ol] | 23.8 | 20.7 | 2730 | 9.4 | ≥ 5000 |  |
| Cc1cc(Nc2ncnc3cnc(N4CCC[C@H]4C(C)(C)O)nc23)ccc1Oc1ccc2c(c1)ncn2C [Example 408] | 32.6 | 65.6 | ≥ 10000 | 42.1 | ≥ 5000 |  |

| Compound | IC50 ([1]; read-out: Assay 1 IC50) [nM] | IC50 (ErbB2 WT) [nM] | IC50 (EGFR) [nM] | IC50 [2] [nM] | IC50 (EGFR wild type (EGFR WT)) [nM] | IC50 ([1]; Assay 1 IC50 (nM)) [nM] |
| --- | --- | --- | --- | --- | --- | --- |
| Cc1cc(Nc2ncnc3cnc(N4C[C@@H](O)C(C)(C)C4)nc23)ccc1Oc1ccc2c(c1)ncn2C [Example 468] | 39.1 | 130 | ≥ 10000 | 87.2 | ≥ 5000 |  |
| C[C@H]1CN(c2ncc3ncnc(Nc4ccc(Oc5ccc6c(c5)ncn6C)c(Cl)c4)c3n2)CCO1 [Example 450] | 26.1 | 55 | 4010 | 13.4 | ≥ 5000 |  |
| CON1CCN(c2ncc3ncnc(Nc4ccc(Oc5ccn6ncnc6c5)c(Cl)c4)c3n2)CC1 [Example 436] | 15.4 | 25 | ≥ 10000 | 61.1 | ≥ 5000 |  |
| Cc1c(Oc2ccc3c(c2)ncn3C)ccc(Nc2ncnc3cnc(N4C[C@H]5C[C@@H]4CO5)nc23)c1F [Example 457] | 25.1 | 83.9 | 8240 | 50.6 | ≥ 5000 |  |
| Cc1cc(Nc2ncnc3cnc(NC4CCCC4)nc23)ccc1Oc1ccc2c(c1)ncn2C [Example 273] | 95 | 202 | ≥ 10000 | 33.5 | ≥ 5000 |  |
| Cc1cc(Nc2ncnc3cnc(N4CC[C@@H](CC#N)C4)nc23)ccc1Oc1ccc2c(c1)ncn2C [Example 201, (S)-2-(1-(8-((3-methyl-4-((1-methyl-1H-benzo[d]imidazol-5-yl)oxy)phenyl)amino)pyrimido[5,4-d]pyrimidin-2-yl)pyrrolidin-3-yl)acetonitrile] | 27.7 | 88.8 | ≥ 10000 | 9.9 | ≥ 5000 |  |
| Cc1cc(Nc2ncnc3cnc(N4CCOC5CC54)nc23)ccc1Oc1ccn2ncnc2c1 (centres unmarked) [Example 382] | 34.5 | 68.9 | 6010 | 397 | ≥ 5000 |  |
| Cn1cnc2cc(Oc3ccc(Nc4ncnc5cnc(N6C[C@H]7CC[C@@H]6CO7)nc45)cc3Cl)ccc21 [Example 451] |  | 63.8 | 3500 | 24.7 | ≥ 5000 | 42.7 |
| Cc1cc(Nc2ncnc3cnc(N(C)C4COC4)nc23)ccc1Oc1ccn2ncnc2c1 [Example 403] | 16.7 | 12 | 6630 | 339 | ≥ 5000 |  |
| Cc1cc(Nc2ncnc3cnc(N4CCC4)nc23)ccc1Oc1ccn2ncnc2c1 [Example 379] | 25.7 | 82.1 | ≥ 10000 | 356 | ≥ 5000 |  |
| Cn1cnc2cc(Oc3ccc(Nc4ncnc5cnc(N6C[C@@H]7C[C@H]6CO7)nc45)cc3Cl)ccc21 [Example 440] |  | 176 | ≥ 10000 | 58.2 | ≥ 5000 | 48.7 |
| Cn1cnc2cc(Oc3ccc(Nc4ncnc5cnc(N6C[C@@H]7[C@@H](C#N)[C@@H]7C6)nc45)cc3Cl)ccc21 [Example 393] | 63.3 | 237 | ≥ 10000 | 43.2 | ≥ 5000 |  |
| Cc1cc(Nc2ncnc3cnc(N4CC[C@]45CCOC5)nc23)ccc1Oc1ccc2c(c1)ncn2C (single isomer, unassigned) [Example 93b] | 16.2 | 11.6 | 1350 | 13.9 | ≥ 5000 |  |
| Cc1cc(Nc2ncnc3cnc(N(C)[C@H]4C[C@H](O)C4)nc23)ccc1Oc1ccn2ncnc2c1 [Example 366] | 8.3 | 6.7 | 303 | 76.6 | ≥ 5000 |  |
| Cc1c(Oc2ccn3ncnc3c2)ccc(Nc2ncnc3cnc(N4CC[C@H](O)C4)nc23)c1F [Example 311] | 75.3 | 76.3 | ≥ 10000 | 3330 | ≥ 5000 |  |
